According to PMC11602988 (The Journal of Biological Chemistry, 2024):

What was measured:
[1] = biological target: T1, OCT1 WT (Homo sapiens, UniProt O15245); test: Uptake screening (transport ratio over empty vector), HEK293 cells overexpressing OCT1 WT; type: cell-based; design: expressed in transfected cells;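 also: intracellular substrate levels quantified by HPLC–tandem mass spectrometry after uptake in HBSS+ buffer at 37 °C, stable Flp-In HEK293 lines, fold change versus empty vector–transfected cells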
T1 sequence (O15245 1-554): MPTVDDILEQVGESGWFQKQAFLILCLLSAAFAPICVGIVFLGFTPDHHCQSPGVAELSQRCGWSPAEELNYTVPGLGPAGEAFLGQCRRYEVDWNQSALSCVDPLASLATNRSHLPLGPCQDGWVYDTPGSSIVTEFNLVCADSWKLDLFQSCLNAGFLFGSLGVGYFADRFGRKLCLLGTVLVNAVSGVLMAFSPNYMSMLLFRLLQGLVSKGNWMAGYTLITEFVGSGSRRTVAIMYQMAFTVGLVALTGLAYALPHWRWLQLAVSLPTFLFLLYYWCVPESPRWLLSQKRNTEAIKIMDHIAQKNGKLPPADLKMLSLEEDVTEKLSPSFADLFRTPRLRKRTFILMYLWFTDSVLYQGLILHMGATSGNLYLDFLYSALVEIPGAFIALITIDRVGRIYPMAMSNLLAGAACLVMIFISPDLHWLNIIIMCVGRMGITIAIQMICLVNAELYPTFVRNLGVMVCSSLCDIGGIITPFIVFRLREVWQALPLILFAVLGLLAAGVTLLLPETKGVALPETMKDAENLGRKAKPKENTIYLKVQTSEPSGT

[2] = biological target: T2, OCT1 Phe244Ala variant (Homo sapiens, UniProt O15245, F244A); test: Uptake screening (transport ratio over empty vector), HEK293 cells overexpressing OCT1 Phe244Ala variant; type: cell-based; design: expressed in transfected cells; conditions: for relative_Phe244Ala_uptake_in%: Phe244Ala uptake relative to OCT1 WT;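 as to all read-outs here: stably transfected HEK293 cells, intracellular substrate quantified by HPLC-tandem mass spectrometry in cell lysates, uptake in HBSS+ buffer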
T2 sequence (O15245 1-554 F244A): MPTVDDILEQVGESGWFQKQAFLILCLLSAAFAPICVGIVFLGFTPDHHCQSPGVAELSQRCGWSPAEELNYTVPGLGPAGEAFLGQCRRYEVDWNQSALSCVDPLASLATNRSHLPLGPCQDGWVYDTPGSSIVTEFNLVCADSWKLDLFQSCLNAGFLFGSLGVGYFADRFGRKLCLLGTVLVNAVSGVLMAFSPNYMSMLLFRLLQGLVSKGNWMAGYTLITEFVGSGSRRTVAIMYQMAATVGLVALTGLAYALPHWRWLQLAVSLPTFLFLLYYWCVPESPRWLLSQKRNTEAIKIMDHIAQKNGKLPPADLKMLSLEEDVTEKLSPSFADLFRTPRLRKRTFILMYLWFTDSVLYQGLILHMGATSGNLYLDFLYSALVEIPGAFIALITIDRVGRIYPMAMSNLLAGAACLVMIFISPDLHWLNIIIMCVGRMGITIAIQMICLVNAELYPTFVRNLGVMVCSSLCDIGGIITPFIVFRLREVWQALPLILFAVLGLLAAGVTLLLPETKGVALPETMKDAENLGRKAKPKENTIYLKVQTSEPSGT

[3] = biological target: T1, OCT1 WT; test: Stereoselective cell uptake of racemic substrates (chiral LC-MS/MS), OCT1 WT; conditions: 2.5 μM racemic substance, 2 min
[4] = biological target: T2, OCT1 Phe244Ala variant; test: Stereoselective cell uptake of racemic substrates (chiral LC-MS/MS), OCT1 Phe244Ala variant; conditions: 2.5 μM racemic substance, 2 min
[5] = biological target: T1, OCT1 WT; test: cell-based
[6] = biological target: T2, OCT1 Phe244Ala variant; test: cell-based
[7] = biological target: T1, OCT1 WT; test: Concentration-dependent uptake kinetics, HEK293 cells overexpressing OCT1 WT; conditions: OCT1 WT; ratio of vmax over Km
[8] = biological target: T2, OCT1 Phe244Ala variant; test: Inhibition of (R,S)-ethambutol uptake, HEK293 cells overexpressing OCT1 Phe244Ala; conditions: for Inhibition of the Phe244Ala mutant compared to the WT transporter (screening): 20 μM inhibitor, 2 μM (R,S)-ethambutol, 5 min
[9] = biological target: T2, OCT1 Phe244Ala variant; test: Concentration-dependent uptake kinetics, HEK293 cells overexpressing OCT1 Phe244Ala;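 also: cells exposed to rising substrate concentrations in buffer, intracellular drug measured by HPLC-tandem mass spectrometry, quantified against a standard curve, uptake referenced to empty vector-transfected HEK293 controls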
[10] = uptake ratio over empty vector, HEK293 cells overexpressing OCT1 WT
[11] = uptake ratio over empty vector, HEK293 cells overexpressing OCT1 Phe244Ala

Row | Mean_transport_ratio_WT [1, 10] | relative_Phe244Ala_uptake_in% [2] [%] | Mean_transport_ratio_Phe244Ala [2, 11] | Stereoselectivity of uptake via WT OCT1 [3] | Stereoselectivity of transport by the Phe244Ala variant [4] | IC50 [5] [µM] | IC50 [6] [µM] | Fold increased uptake rate by Phe244Ala compared to WT ([2]; 2.5 μM substrate, 2 min) [fold] | Clint [7] | Inhibition of the Phe244Ala mutant compared to the WT transporter (screening) [8] | Clint ([9]; OCT1 Phe244Ala, ratio of vmax over Km) | Km, Phe244Ala compared to WT ([9]; uptake kinetics, in words) | Fold difference of inhibitory potency between WT and Phe244Ala ([8]; IC50 comparison, (R,S)-ethambutol uptake) [fold] | SMILES | Stereoselectivity of Phe244Ala variant compared to WT [4] | Mean_transport_ratio_WT ([1]; uptake ratio of OCT1 WT-overexpressing HEK293 cells over empty vector) | Mean_transport_ratio_Phe244Ala ([2]; uptake ratio of OCT1 Phe244Ala-overexpressing HEK293 cells over empty vector)
1 | 34.864 | 54.211 | 19.358 | stereoselective uptake | lacked any stereoselective transport | – | – | – | – | – | – | – | – | O=C(NCCNCC(O)COc1ccc(O)cc1)N1CCOCC1 (stereo not shown) [Xamoterol] | only one enantiomer of the racemic mixtures showed altered transport | – | –
2 | 3.001 | 40.118 | 1.803 | stereoselective uptake | lacked any stereoselective transport | – | – | – | – | – | – | – | – | CCOc1ccccc1OCCN[C@H](C)Cc1ccc(OC)c(S(N)(=O)=O)c1 [Tamsulosin] | – | – | –
3 | – | – | – | – | – | 104 | 23.3 | 8.0 | 0.43 ± 0.85 ml × g Protein^−1 × min^−1 | more potent inhibition | 2.74 ± 2.15 ml × g Protein^−1 × min^−1 | lower Km values | – | CN1CCN(CC(=O)N2c3ccccc3C(=O)Nc3cccnc32)CC1 [Pirenzepine] | – | – | –
4 | – | – | – | – | – | 1.62 | 34.3 | – | – | strongly reduced inhibition | – | – | 21 | Clc1cccc(Cl)c1N=C1NCCN1 [Clonidine] | – | – | –

Row | SMILES | Mean_transport_ratio_WT [1, 10] | relative_Phe244Ala_uptake_in% [2] [%] | Mean_transport_ratio_Phe244Ala [2, 11] | Stereoselectivity of uptake via WT OCT1 [3] | Stereoselectivity of transport by the Phe244Ala variant [4] | IC50 [5] [µM] | IC50 [6] [µM] | Fold increased uptake rate by Phe244Ala compared to WT ([2]; 2.5 μM substrate, 2 min) [fold] | Clint [7] | Inhibition of the Phe244Ala mutant compared to the WT transporter (screening) [8] | Clint ([9]; OCT1 Phe244Ala, ratio of vmax over Km) | Km, Phe244Ala compared to WT ([9]; uptake kinetics, in words) | Fold difference of inhibitory potency between WT and Phe244Ala ([8]; IC50 comparison, (R,S)-ethambutol uptake) [fold] | Stereoselectivity of Phe244Ala variant compared to WT [4] | Mean_transport_ratio_WT ([1]; uptake ratio of OCT1 WT-overexpressing HEK293 cells over empty vector) | Mean_transport_ratio_Phe244Ala ([2]; uptake ratio of OCT1 Phe244Ala-overexpressing HEK293 cells over empty vector)
5 | CN(C)CCc1ccc(O)cc1 [Hordenine] | – | 11.246 | – | – | – | 3 | 53.2 | – | – | strongly reduced inhibition | – | – | – | – | 2.424 | 1.16
